Measurements published in publication PMC3130785, “Small Compound 6-O-Angeloylplenolin Induces Mitotic Arrest and Exhibits Therapeutic Potentials in Multiple Myeloma” (PLoS ONE, 2011).

Experiments:
[1] = system: ubiquitinated cyclin B1 (Ub-cyclin B1); test: Immunoprecipitation and Western blotting; format: cell-based, human; settings: U266 and MM.1S; 24 h
Procedure: (§1) Cell pellets were lysed in RIPA buffer containing 50 mM Tris pH 8.0, 150 mM NaCl, 0.1% SDS, 0.5% deoxycholate, 1% NP-40, 1 mM DTT, 1 mM NaF, 1 mM sodium vanadate, and protease inhibitors cocktail (Sigma). For immunoprecipitations, cells were lysed on ice for 15 minutes in RIPA buffer. Lysates were centrifuged. The supernatant was incubated with indicated antibodies overnight, after which protein A/G Plus beads (Santa Cruz Biotechnology) were added and incubated for 3 h. The beads were washed 4 times in RIPA buffer. Then the beads were resuspended in 1× sample buffer and boiled for 3 min. Protein extracts were quantitated and loaded on 8% to 12% sodium dodecyl sulfate polyacrylamide gel, electrophoresed, and transferred to a nitrocellulose membrane (Whatman). The membrane was incubated with primary antibody, washed, and incubated with horseradish peroxidase (HRP)–conjugated secondary antibody (Pierce). Detection was performed by using a chemiluminescent western detection kit (Cell Signaling). […]
(§2) Figure 3 6-OAP accumulates cyclin B1 which is required for mitotic arrest. […] After co-incubation with 6-OAP for 18 h, the cells were then harvested and detected by Leica DMI 400B microscope (D), or analyzed by flow cytometry for the cell cycle distribution (E). To evaluate cell growth, the cells were treated with 6-OAP for indicated time points and analyzed by trypan blue exclusion assay (F). […]

Mad2 bound Cdc20 = test: Immunoprecipitation and Western blotting; format: cell-based, human; settings: U266 and MM.1S cells; 24 h
Procedure: as §1, §2

In the case of `CC=C(C)C(=O)OC1C2C(CC(C)C3C=CC(=O)C31C)OC(=O)C2C` (centres unmarked) [6-OAP, 6-O-angeloylplenolin], the “ubiquitinated cyclin B1” value [1] is reported as “markedly decreased” and the Mad2-Cdc20 binding (Mad2 bound Cdc20) is reported as “enhanced the binding affinity”.
